Measured values published in ChEMBL document CHEMBL3885881, “DrugMatrix”.

Species: Rattus norvegicus
Experiment: DrugMatrix - Regimen: Daily Repeat
Assay type: toxicity, organism-based, Sprague-Dawley
Parameters: regimen Daily Repeat, gender Male, age 6-8 weeks
Settings: in vivo, po, route oral GAVAGE, vehicle .5 % CMC; for ABSOLUTE BASOPHIL / ABSOLUTE EOSINOPHIL / ABSOLUTE LYMPHOCYTE / ABSOLUTE MONOCYTE / ABSOLUTE SEGMENTED NEUTROPHIL / BASOPHIL / EOSINOPHIL / ERYTHROCYTE COUNT / HEMATOCRIT / HEMOGLOBIN / LEUKOCYTE COUNT / LYMPHOCYTE / MEAN CORPUSCULAR HEMOGLOBIN / MEAN CORPUSCULAR HEMOGLOBIN CONCENTRATION / MEAN CORPUSCULAR VOLUME / MONOCYTE / NEUTROPHIL / NUCLEATED RED BLOOD CELLS / PLATELET COUNT: tissue Blood; for ALANINE AMINOTRANSFERASE / ALBUMIN / ALKALINE PHOSPHATASE / ASPARTATE AMINOTRANSFERASE / BLOOD UREA NITROGEN / CARBON DIOXIDE / CHLORIDE / CHOLESTEROL / CREATINE PHOSPHOKINASE / CREATININE / GLUCOSE / LACTATE DEHYDROGENASE / LIPASE / PHOSPHORUS / POTASSIUM / SODIUM / TOTAL BILIRUBIN / TOTAL PROTEIN / URIC ACID: tissue Plasma
[1] = 10 mg/kg, 72 h, dose level Low, time 3 day
[2] = 10 mg/kg, 120 h, dose level Low, time 5 day
[3] = 350 mg/kg, 72 h, dose level High, time 3 day

## CCC1(c2ccc(N)cc2)CCC(=O)NC1=O (centres undefined) [AMINOGLUTETHIMIDE]
[1]
  ABSOLUTE BASOPHIL: 0 CELLS/uL
  ABSOLUTE EOSINOPHIL: 0 CELLS/uL
  ABSOLUTE LYMPHOCYTE: 11710.67 CELLS/uL
  ABSOLUTE MONOCYTE: 267.33 CELLS/uL
  ABSOLUTE SEGMENTED NEUTROPHIL: 2622 CELLS/uL
  BASOPHIL: 0%
  EOSINOPHIL: 0%
  ERYTHROCYTE COUNT: 5.37 x10E6/uL
  HEMATOCRIT: 34.23%
  HEMOGLOBIN: 13.47 G/DL
  LEUKOCYTE COUNT: 14.6 x10E3/uL
  LYMPHOCYTE: 80.33%
  MEAN CORPUSCULAR HEMOGLOBIN: 25.1 pg
  MEAN CORPUSCULAR HEMOGLOBIN CONCENTRATION: 39.33 G/DL
  MEAN CORPUSCULAR VOLUME: 63.77 fL
  MONOCYTE: 1.67%
  NEUTROPHIL: 18%
  NUCLEATED RED BLOOD CELLS: 0 /100WBC
  PLATELET COUNT: 1364.33 x10E3/uL
  ALANINE AMINOTRANSFERASE: 54.67 u/L
  ALBUMIN: 4.07 G/DL
  ALKALINE PHOSPHATASE: 367 u/L
  ASPARTATE AMINOTRANSFERASE: 87.33 u/L
  BLOOD UREA NITROGEN: 17 mg/dL
  CARBON DIOXIDE: 26 mmol/L
  CHLORIDE: 102 MEQ/L
  CHOLESTEROL: 69.33 mg/dL
  CREATINE PHOSPHOKINASE: 357.33 u/L
  CREATININE: 0.16 mg/dL
  GLUCOSE: 160 mg/dL
  LACTATE DEHYDROGENASE: 241.67 u/L
  LIPASE: 9.33 u/L
  PHOSPHORUS: 13 mg/dL
  POTASSIUM: 6.52 MEQ/L
  SODIUM: 143.27 MEQ/L
  TOTAL BILIRUBIN: 0.2 mg/dL
  TOTAL PROTEIN: 5.67 G/DL
  URIC ACID: 1.83 mg/dL
[2]
  ABSOLUTE BASOPHIL: 0 CELLS/uL
  ABSOLUTE EOSINOPHIL: 0 CELLS/uL
  ABSOLUTE LYMPHOCYTE: 14655 CELLS/uL
  ABSOLUTE MONOCYTE: 54.33 CELLS/uL
  ABSOLUTE SEGMENTED NEUTROPHIL: 1457.33 CELLS/uL
  BASOPHIL: 0%
  EOSINOPHIL: 0%
  ERYTHROCYTE COUNT: 5.82 x10E6/uL
  HEMATOCRIT: 35.6%
  HEMOGLOBIN: 14.1 G/DL
  LEUKOCYTE COUNT: 16.17 x10E3/uL
  LYMPHOCYTE: 90.67%
  MEAN CORPUSCULAR HEMOGLOBIN: 24.23 pg
  MEAN CORPUSCULAR HEMOGLOBIN CONCENTRATION: 39.67 G/DL
  MEAN CORPUSCULAR VOLUME: 61.17 fL
  MONOCYTE: 0.33%
  NEUTROPHIL: 9%
  NUCLEATED RED BLOOD CELLS: 0 /100WBC
  PLATELET COUNT: 1044 x10E3/uL
  ALANINE AMINOTRANSFERASE: 56 u/L
  ALBUMIN: 4.33 G/DL
  ALKALINE PHOSPHATASE: 463 u/L
  ASPARTATE AMINOTRANSFERASE: 91.67 u/L
  BLOOD UREA NITROGEN: 16.67 mg/dL
  CARBON DIOXIDE: 27 mmol/L
  CHLORIDE: 100 MEQ/L
  CHOLESTEROL: 67 mg/dL
  CREATINE PHOSPHOKINASE: 282 u/L
  CREATININE: 0.2 mg/dL
  GLUCOSE: 155.67 mg/dL
  LACTATE DEHYDROGENASE: 347.67 u/L
  LIPASE: 12.33 u/L
  PHOSPHORUS: 11.8 mg/dL
  POTASSIUM: 6.27 MEQ/L
  SODIUM: 142.47 MEQ/L
  TOTAL BILIRUBIN: 0.17 mg/dL
  TOTAL PROTEIN: 5.87 G/DL
  URIC ACID: 1.8 mg/dL
[3]
  ABSOLUTE BASOPHIL: 0 CELLS/uL
  ABSOLUTE EOSINOPHIL: 0 CELLS/uL
  ABSOLUTE LYMPHOCYTE: 12308.33 CELLS/uL
  ABSOLUTE MONOCYTE: 135 CELLS/uL
  ABSOLUTE SEGMENTED NEUTROPHIL: 1890 CELLS/uL
  BASOPHIL: 0%
  EOSINOPHIL: 0%
  ERYTHROCYTE COUNT: 6.41 x10E6/uL
  HEMATOCRIT: 37.93%
  HEMOGLOBIN: 15.13 G/DL
  LEUKOCYTE COUNT: 14.33 x10E3/uL
  LYMPHOCYTE: 84.67%
  MEAN CORPUSCULAR HEMOGLOBIN: 23.57 pg
  MEAN CORPUSCULAR HEMOGLOBIN CONCENTRATION: 39.87 G/DL
  MEAN CORPUSCULAR VOLUME: 59.1 fL
  MONOCYTE: 1%
  NEUTROPHIL: 14.33%
  NUCLEATED RED BLOOD CELLS: 0 /100WBC
  PLATELET COUNT: 1180.67 x10E3/uL
  ALANINE AMINOTRANSFERASE: 78.33 u/L
  ALBUMIN: 3.73 G/DL
  ALKALINE PHOSPHATASE: 251.67 u/L
  ASPARTATE AMINOTRANSFERASE: 137.67 u/L
  BLOOD UREA NITROGEN: 12 mg/dL
  CARBON DIOXIDE: 27.33 mmol/L
  CHLORIDE: 100 MEQ/L
  CHOLESTEROL: 103.67 mg/dL
  CREATINE PHOSPHOKINASE: 398 u/L
  CREATININE: 0.14 mg/dL
  GLUCOSE: 120 mg/dL
  LACTATE DEHYDROGENASE: 202.67 u/L
  LIPASE: 10.33 u/L
  PHOSPHORUS: 12.03 mg/dL
  POTASSIUM: 5.62 MEQ/L
  SODIUM: 144.37 MEQ/L
  TOTAL BILIRUBIN: 0.13 mg/dL
  TOTAL PROTEIN: 5.23 G/DL
  URIC ACID: 1.73 mg/dL
